Source: ChEMBL document CHEMBL5528028, “Discovery of benzopyridone cyanoacetates as new type of potential broad-spectrum antibacterial candidates” (Eur J Med Chem, 2024)
Converted amounts (≈) assume the structure as drawn.

Assays:
Type in all cases: functional
[1] = test system: Acinetobacter baumannii; experiment: Antibacterial activity against Acinetobacter baumannii assessed growth inhibition by micro broth dilution method
[2] = test system: Escherichia coli; experiment: Antibacterial activity against Escherichia coli ATCC 25922 assessed growth inhibition by micro broth dilution method
[3] = test system: Staphylococcus aureus; experiment: Antibacterial activity against Staphylococcus aureus ATCC 29213 assessed growth inhibition by micro broth dilution method
[4] = test system: Pseudomonas aeruginosa; experiment: Antibacterial activity against Pseudomonas aeruginosa assessed growth inhibition by micro broth dilution method
[5] = test system: Pseudomonas aeruginosa; experiment: Antibacterial activity against Pseudomonas aeruginosa ATCC 27853 assessed growth inhibition by micro broth dilution method
[6] = test system: Staphylococcus aureus; experiment: Antibacterial activity against Staphylococcus aureus ATCC 25923 assessed growth inhibition by micro broth dilution method
[7] = test system: Enterococcus faecalis; experiment: Antibacterial activity against Enterococcus faecalis assessed growth inhibition by micro broth dilution method
[8] = test system: Klebsiella pneumoniae; experiment: Antibacterial activity against Klebsiella pneumonia assessed growth inhibition by micro broth dilution method
[9] = test system: Staphylococcus aureus; experiment: Antibacterial activity against Staphylococcus aureus assessed growth inhibition by micro broth dilution method
[10] = test system: Staphylococcus aureus; experiment: Antibacterial activity against methicillin-resistant Staphylococcus aureus assessed growth inhibition by micro broth dilution method
[11] = test system: Escherichia coli; experiment: Antibacterial activity against Escherichia coli assessed growth inhibition by micro broth dilution method

| Structure (SMILES) | MIC [1] [µg/mL] | MIC [2] [µg/mL] | MIC [3] [µg/mL] | MIC [4] [µg/mL] | MIC [5] [µg/mL] | MIC [6] [µg/mL] | MIC [7] [µg/mL] | MIC [8] [µg/mL] | MIC [9] [µg/mL] | MIC [10] [µg/mL] | MIC [11] [µg/mL] |
| --- | --- | --- | --- | --- | --- | --- | --- | --- | --- | --- | --- |
| CCOC(=O)C(C#N)c1cc2c(cc1F)c(=O)c(C(=O)O)cn2Cc1ccc(F)cc1F (stereo unspecified) | 2 (≈ 4.5 µM) | 0.5 (≈ 1.13 µM) | 4 (≈ 9 µM) | 16 (≈ 36 µM) | 2 (≈ 4.5 µM) | 1 (≈ 2.25 µM) | 8 (≈ 18 µM) | 0.5 (≈ 1.13 µM) | 4 (≈ 9 µM) | 8 (≈ 18 µM) | 16 (≈ 36 µM) |
| CCCn1cc(C(=O)OCC)c(=O)c2cc(F)c(F)cc21 | 256 (≈ 867 µM) | 128 (≈ 433 µM) | 128 (≈ 433 µM) | 128 (≈ 433 µM) | 256 (≈ 867 µM) | 256 (≈ 867 µM) | 256 (≈ 867 µM) | 64 (≈ 217 µM) | 64 (≈ 217 µM) | 256 (≈ 867 µM) | 32 (≈ 108 µM) |
| C=CCn1cc(C(=O)OCC)c(=O)c2cc(F)c(F)cc21 | 256 (≈ 873 µM) | 64 (≈ 218 µM) | 128 (≈ 436 µM) | 64 (≈ 218 µM) | 256 (≈ 873 µM) | 64 (≈ 218 µM) | 128 (≈ 436 µM) | 32 (≈ 109 µM) | 128 (≈ 436 µM) | 256 (≈ 873 µM) | 8 (≈ 27.3 µM) |
| CCCCCCn1cc(C(=O)OCC)c(=O)c2cc(F)c(F)cc21 | 64 (≈ 190 µM) | 64 (≈ 190 µM) | 128 (≈ 379 µM) | 64 (≈ 190 µM) | 256 (≈ 759 µM) | 128 (≈ 379 µM) | 64 (≈ 190 µM) | 64 (≈ 190 µM) | 8 (≈ 23.7 µM) | 256 (≈ 759 µM) | 8 (≈ 23.7 µM) |
| CCOC(=O)c1cn(Cc2ccccc2Cl)c2cc(F)c(F)cc2c1=O | 32 (≈ 84.7 µM) | 128 (≈ 339 µM) | 256 (≈ 678 µM) | 256 (≈ 678 µM) | 256 (≈ 678 µM) | 256 (≈ 678 µM) | 4 (≈ 10.6 µM) | 32 (≈ 84.7 µM) | 128 (≈ 339 µM) | 256 (≈ 678 µM) | 2 (≈ 5.29 µM) |
| CCCCCCCCn1cc(C(=O)OCC)c(=O)c2cc(F)c(F)cc21 | 64 (≈ 175 µM) | 64 (≈ 175 µM) | 16 (≈ 43.8 µM) | 64 (≈ 175 µM) | 256 (≈ 701 µM) | 128 (≈ 350 µM) | 64 (≈ 175 µM) | 64 (≈ 175 µM) | 4 (≈ 10.9 µM) | 256 (≈ 701 µM) | 4 (≈ 10.9 µM) |
| CCOC(=O)c1cn(Cc2cnc(Cl)s2)c2cc([C-](C#N)C(=O)OCC)c(F)cc2c1=O.[Na+] (stereo unspecified) | 16 | 8 | 8 | 64 | 2 | 4 | 4 | 32 | 32 | 4 | 4 |
| CCn1cc(C(=O)O)c(=O)c2cc(F)c(N3CCNCC3)cc21 [NORFLOXACIN] | 2 (≈ 6.26 µM) | 4 (≈ 12.5 µM) | 4 (≈ 12.5 µM) | 8 (≈ 25.1 µM) | 8 (≈ 25.1 µM) | 8 (≈ 25.1 µM) | 8 (≈ 25.1 µM) | 8 (≈ 25.1 µM) | 8 (≈ 25.1 µM) | 8 (≈ 25.1 µM) | 4 (≈ 12.5 µM) |
| CCOC(=O)c1cn(CC2CCCCC2)c2cc(C(C#N)C(=O)OCC)c(F)cc2c1=O (stereo unspecified) | 4 (≈ 9.04 µM) | 0.5 (≈ 1.13 µM) | 4 (≈ 9.04 µM) | 1 (≈ 2.26 µM) | 1 (≈ 2.26 µM) | 1 (≈ 2.26 µM) | 16 (≈ 36.2 µM) | 4 (≈ 9.04 µM) | 64 (≈ 145 µM) | 64 (≈ 145 µM) | 4 (≈ 9.04 µM) |
| CCOC(=O)c1cn2c3c(c(F)c(F)cc3c1=O)OC[C@@H]2C | 32 (≈ 103 µM) | 128 (≈ 414 µM) | 64 (≈ 207 µM) | 128 (≈ 414 µM) | 256 (≈ 828 µM) | 32 (≈ 103 µM) | 128 (≈ 414 µM) | 32 (≈ 103 µM) | 128 (≈ 414 µM) | 64 (≈ 207 µM) | 16 (≈ 51.7 µM) |
| CCOC(=O)c1cn(CC2CCC2)c2cc([C-](C#N)C(=O)OCC)c(F)cc2c1=O.[Na+] (stereo unspecified) | 4 | 2 | 8 | 16 | 8 | 4 | 2 | 8 | 8 | 16 | 64 |
| CCOC(=O)c1cn(Cc2ccccc2)c2cc(F)c(F)cc2c1=O | 2 (≈ 5.83 µM) | 128 (≈ 373 µM) | 256 (≈ 746 µM) | 256 (≈ 746 µM) | 256 (≈ 746 µM) | 256 (≈ 746 µM) | 128 (≈ 373 µM) | 256 (≈ 746 µM) | 128 (≈ 373 µM) | 256 (≈ 746 µM) | 2 (≈ 5.83 µM) |
| CCOC(=O)c1cn(CC=C(C)C)c2cc(F)c(F)cc2c1=O | 256 (≈ 797 µM) | 64 (≈ 199 µM) | 128 (≈ 398 µM) | 64 (≈ 199 µM) | 256 (≈ 797 µM) | 64 (≈ 199 µM) | 128 (≈ 398 µM) | 32 (≈ 99.6 µM) | 128 (≈ 398 µM) | 256 (≈ 797 µM) | 8 (≈ 24.9 µM) |
| CCOC(=O)c1cn(Cc2ccc(Cl)cc2)c2cc(F)c(F)cc2c1=O | 4 (≈ 10.6 µM) | 128 (≈ 339 µM) | 256 (≈ 678 µM) | 256 (≈ 678 µM) | 256 (≈ 678 µM) | 256 (≈ 678 µM) | 64 (≈ 169 µM) | 32 (≈ 84.7 µM) | 64 (≈ 169 µM) | 256 (≈ 678 µM) | 1 (≈ 2.65 µM) |
| CCOC(=O)c1cn(Cc2ccc([N+](=O)[O-])cc2)c2cc(F)c(F)cc2c1=O | 16 (≈ 41.2 µM) | 128 (≈ 330 µM) | 256 (≈ 659 µM) | 256 (≈ 659 µM) | 256 (≈ 659 µM) | 256 (≈ 659 µM) | 256 (≈ 659 µM) | 256 (≈ 659 µM) | 128 (≈ 330 µM) | 256 (≈ 659 µM) | 2 (≈ 5.15 µM) |
| CCOC(=O)c1cn(CC2CCCC2)c2cc(F)c(F)cc2c1=O | 256 (≈ 763 µM) | 128 (≈ 382 µM) | 128 (≈ 382 µM) | 128 (≈ 382 µM) | 256 (≈ 763 µM) | 16 (≈ 47.7 µM) | 256 (≈ 763 µM) | 32 (≈ 95.4 µM) | 64 (≈ 191 µM) | 256 (≈ 763 µM) | 8 (≈ 23.9 µM) |
| CCCCCCCCCCCCn1cc(C(=O)OCC)c(=O)c2cc(F)c(F)cc21 | 64 (≈ 152 µM) | 64 (≈ 152 µM) | 32 (≈ 75.9 µM) | 64 (≈ 152 µM) | 256 (≈ 607 µM) | 128 (≈ 304 µM) | 64 (≈ 152 µM) | 16 (≈ 38 µM) | 32 (≈ 75.9 µM) | 256 (≈ 607 µM) | 16 (≈ 38 µM) |
| CCOC(=O)c1cn(Cc2ccc(Cl)c(Cl)c2)c2cc(C(C#N)C(=O)OCC)c(F)cc2c1=O (stereo unspecified) | 2 (≈ 3.96 µM) | 4 (≈ 7.92 µM) | 0.25 (≈ 0.495 µM) | 0.5 (≈ 0.989 µM) | 2 (≈ 3.96 µM) | 1 (≈ 1.98 µM) | 16 (≈ 31.7 µM) | 1 (≈ 1.98 µM) | 4 (≈ 7.92 µM) | 8 (≈ 15.8 µM) | 8 (≈ 15.8 µM) |
| CCOC(=O)c1cn(Cc2ccc(Cl)cc2)c2cc([C-](C#N)C(=O)OCC)c(F)cc2c1=O.[Na+] (stereo unspecified) | 64 | 1 | 2 | 16 | 2 | 1 | 1 | 2 | 64 | 64 | 0.5 |
| CCOC(=O)c1cn(CC(=O)N2CCCCC2)c2cc(F)c(F)cc2c1=O | 64 (≈ 169 µM) | 64 (≈ 169 µM) | 64 (≈ 169 µM) | 32 (≈ 84.6 µM) | 64 (≈ 169 µM) | 128 (≈ 338 µM) | 64 (≈ 169 µM) | 256 (≈ 677 µM) | 256 (≈ 677 µM) | 256 (≈ 677 µM) | 16 (≈ 42.3 µM) |
| CCOC(=O)C(C#N)c1cc2c(cc1F)c(=O)c(C(=O)O)cn2CC=C(C)C (stereo unspecified) | 1 (≈ 2.59 µM) | 1 (≈ 2.59 µM) | 4 (≈ 10.4 µM) | 8 (≈ 20.7 µM) | 1 (≈ 2.59 µM) | 4 (≈ 10.4 µM) | 64 (≈ 166 µM) | 0.25 (≈ 0.647 µM) | 4 (≈ 10.4 µM) | 8 (≈ 20.7 µM) | 32 (≈ 82.8 µM) |
